According to patent US9708332B2, “Respiratory syncytial virus inhibitors” (MEDIVIR AB, priority 2013, dated 2017):

Each compound was assayed on RSV (Long) (assay: RSV cytopathic effect (CPE)-based viral replication assay in HEp-2 cells). Conditions: human respiratory syncytial virus, 72 h; HEp-2 cells infected with RSV Long at MOI 0.015, 3 days, cell viability by CellTiter-Glo; read-out: Ec50 (nM) Example A.
Method: Compounds of the invention are initially tested in a cytopathic effect (CPE)-based viral replication assay using immortalized cells and a laboratory strain of RSV (Long). This assay evaluates the ability of a compound to inhibit viral replication. Assay plates are prepared by seeding 2,500 HEp-2 cells (ATCC) per well of a 384-well black clear-bottom plate (Greiner Bio-One) in 20 μL of assay media (defined as DMEM supplemented with 2% heat-inactivated fetal bovine serum and 1% Penicillin/Streptomycin). Assay plates are incubated overnight at 37° C. in an incubator containing 5% CO2. The following day, a 10-point serial dilution of test compound is prepared in DMSO. Compounds are subsequently diluted with assay media and 20 μL of diluted compound (containing 1.5% DMSO) is transferred to an assay plate for evaluation of antiviral activity. For the CPE assay, cells are infected at a MOI of 0.015 using 20 μL of RSV Long (ATCC) diluted in assay media. The DMSO concentration is constant throughout the assay plate, including the negative and positive controls. The assay plate is incubated for 3 days at 37° C. in an incubator containing 5% CO2. Cell viability is evaluated with the addition of 10 μL of CellTiter-Glo (ProMega). Luminescence is measured using an EnVision plate reader (Perkin Elmer). EC50 values are calculated using the raw data from the CPE assays, respectively.

SMILES | EC50 [nM]
O=c1n(Cc2nc(OCCCO)c3ccccc3n2)c2cnccc2n1C1CC1 [Compound 1002] | 260
Cc1ccc2c(OCC3CCOC3)nc(Cn3c(=O)n(C4CC4)c4ccncc43)nc2c1 (stereo not shown) [Compound 1034] | 28
N#Cc1ccc2nc(Cn3c(=O)n(C4CC4)c4ccncc43)nc(OCC3CCOC3)c2c1 (stereo not shown) [Compound 1036] | 140
Cn1cc(-c2ccc3c(OCC4CCOC4)nc(Cn4c(=O)n(C5CC5)c5ccncc54)nc3c2)cn1 (stereo not shown) [Compound 1043] | 6400
CS(=O)(=O)CCCOc1nc(Cn2c(=O)n(C3CC3)c3ccncc32)nc2cc(Cl)ccc12 [Compound 1065] | 43
O=c1n(Cc2nc(OCCCO)c3ccccc3n2)c2ccccc2n1C1CC1 [Compound 1069] | 1200
Cc1cc2n(Cc3nc(OCC4CCOC4)c4cc(C#N)ccc4n3)c(=O)c3ccccc3n2n1 (stereo not shown) [Compound 1074] | 2.8
O=c1n(Cc2nc(OC3CCOC3)c3ccc(Cl)cc3n2)c2c[n+]([O-])ccc2n1C1CC1 (stereo not shown) [Compound 1104] | 130
Cc1cc2n(Cc3nc(N(C)Cc4cnn(C)c4)c4ccccc4n3)c(=O)c3ccccc3n2n1 [compound 1027] | 10
O=c1n(Cc2nc(OCC3CCOC3)c3cc(Cl)ccc3n2)c2cnccc2n1C1CC1 (stereo not shown) [compound 1054] | 600
Cc1cc2n(Cc3nc(OCC4CCOC4)c4ccccc4n3)c(=O)c3ccccc3n2n1 (stereo not shown) [compound 1070] | 16
O=c1n(Cc2nc(OCC3CCOC3)c3ccc(Cl)cc3n2)c2cnccc2n1C1CCOCC1 (stereo not shown) [compound 1095] | 380
N#Cc1cc2ccccc2n(Cc2nc(OC3CCOC3)c3ccccc3n2)c1=O (stereo not shown) [compound 1108] | 1600
CN(CC1CCOC1)c1nc(Cn2ccc3nccn3c2=O)nc2ccccc12 (stereo not shown) [compound 1119] | 7700
Cc1cc2n(Cc3nc(N(C)CC4CCOC4)c4ccccc4n3)c(=O)c3ccccc3n2n1 (stereo not shown) [compound 1140] | 26
Cc1cc(CN(C)c2nc(Cn3c(=O)n(C4CC4)c4ccncc43)nc3ccccc23)on1 [compound 1163] | 590
Cc1cc(CN(C)c2nc(Cn3c(=O)c4ccccc4c4ccccc43)nc3ccccc23)on1 [compound 1168] | 280
CN(Cc1cnn(C)c1)c1nc(Cn2c(=O)c3ccccc3n3ncc(C#N)c23)nc2ccccc12 [compound 1179] | 400
O=c1c2ccccc2n2nccc2n1Cc1nc(OC2CCOC2)c2ccccc2n1 (stereo not shown) [compound 1198] | 21
CCc1cc2n(Cc3nc(OC4CCOC4)c4ccccc4n3)c(=O)c3ccccc3n2n1 (stereo not shown) [compound 1199] | 8.8
Cc1c(C#N)c(=O)n(Cc2nc(OC3CCOC3)c3ccccc3n2)c2ccccc12 (stereo not shown) [compound 1204] | 79
Cc1cc2n(Cc3nc(OC4CCOC4)c4ccccc4n3)c(=O)c3ccccc3n2n1 (stereo not shown) [compound 1205] | 6.6
COc1cccc2c(=O)n(Cc3nc(N(C)Cc4cnn(C)c4)c4ccccc4n3)c3cc(C)nn3c12 [compound 1215] | 31
O=c1n(Cc2nc(OC3CCOC3)c3ccc(Cl)cc3n2)c2cccnc2n1C1CC1 (stereo not shown) [compound 1218] | 380
O=c1n(Cc2nc(OC3CCOC3)c3ccc(Cl)cc3n2)c2ncccc2n1C1CC1 (stereo not shown) [compound 1219] | 200
O=c1n(Cc2nc(OC3CCOC3)c3ccccc3n2)c2ncccc2n1C1CC1 (stereo not shown) [compound 1221] | 170

Further compounds by falling EC50, results first:

EC50 [nM] | SMILES
1700 | Cc1cc2n(Cc3nc(OCC4CCOC4)c4ccc(Br)cc4n3)c(=O)c3ccccc3n2n1 (stereo not shown) [compound 1047]
1400 | Cc1cc2n(Cc3nc(NC(C)c4cnn(C)c4)c4ccccc4n3)c(=O)c3ccccc3n2n1 (stereo not shown) [compound 1180]
1100 | O=c1n(Cc2nc(CCCCO)c3ccccc3n2)c2ccccc2n1C1CC1 [Compound 1016]
1000 | Cc1cc(CN(C)c2nc(CN3C(=O)N(C4CC4)Cc4ccccc43)nc3ccccc23)on1 [compound 1164]
970 | CN(Cc1cnn(C)c1)c1nc(Cn2c(=O)n(C3CC3)c3ccccc32)nc2ccccc12 [compound 1005]
710 | O=c1n(Cc2nc(OCC3CCOC3)c3cccc(Cl)c3n2)c2cnccc2n1C1CC1 (stereo not shown) [compound 1090]
490 | O=c1n(Cc2nc(OCC3CCOC3)c3ccccc3n2)c2cccnc2n1C1CC1 (stereo not shown) [compound 1222]
480 | Cn1c(=O)n(Cc2nc(OCC3CCOC3)c3ccccc3n2)c2ccccc21 (stereo not shown) [compound 1142]
470 | CN(Cc1cnn(C)c1)c1nc(Cn2c(=O)c3ccccc3n3cncc23)nc2ccccc12 [compound 1183]
450 | O=c1n(Cc2nc(OCC3CCOC3)c3ccccc3n2)c2ncccc2n1C1CC1 (stereo not shown) [compound 1020]
300 | O=c1n(Cc2nc(OCC3CCOC3)c3ccc(Cl)cc3n2)c2cnccc2n1C1CCS(=O)(=O)C1 (stereo not shown) [compound 1096]
280 | O=C1CCCN1CCOc1nc(Cn2c(=O)n(C3CC3)c3ccncc32)nc2cc(Br)ccc12 [compound 1081]
280 | O=c1n(Cc2nc(OCC3CCOC3)c3c(Cl)cccc3n2)c2cnccc2n1C1CC1 (stereo not shown) [compound 1085]
110 | O=c1n(Cc2nc(OC3CCOC3)c3ccccc3n2)c2cnccc2n1C1CC1 (stereo not shown) [compound 1206]
93 | Cc1ncc2n(Cc3nc(OC4CCOC4)c4ccccc4n3)c(=O)c3ccccc3n12 (stereo not shown) [compound 1097]
63 | O=c1n(Cc2nc(OC3COC3)c3ccc(Cl)cc3n2)c2cnccc2n1C1CC1 [compound 1068]
29 | O=c1n(Cc2nc(OC3CCOC3)c3ccc(Cl)cc3n2)c2cnccc2n1C1CC1 (stereo not shown) [compound 1061]
29 | O=c1c2ccccc2n2nncc2n1Cc1nc(OC2CCOC2)c2ccccc2n1 (stereo not shown) [compound 1200]
25 | Cc1ncn2c3ccccc3c(=O)n(Cc3nc(OC4CCOC4)c4ccccc4n3)c12 (stereo not shown) [compound 1100]
15 | Cc1cc2n(Cc3nc(N(C)Cc4cnn(C)c4)c4ccccc4n3)c(=O)c3ccncc3n2n1 [compound 1212]
